Test results reported in PMC6901946, “Intranasal MMI-0100 Attenuates Aβ1−42- and LPS-Induced Neuroinflammation and Memory Impairments via the MK2 Signaling Pathway” (Frontiers in Immunology, 2019).
Ends that are not written are not given here.

Tests used:
[1] = test system: Kunming mice; test: Novel object recognition (NOR) task; format: in vivo, mouse; details: Aβ1−42 800 pmol i.c.v. 14 days before, tested after 24 h
Experimental: (§1) MMI-0100 or vehicle was infused into the brain by using a 32-gauge stainless steel syringe needle placed in and projecting 0.5 mm below the tip of the cannula for 2 min. This needle was connected via a PE tube to a 5-μl Hamilton syringe mounted to a Microdrive pump (KD Scientific). To allow the drug to diffuse, the infusion syringe remained in place for 1 min. For the lateral ventricle, injection volume is 2 μl, and for the bilateral hippocampus CA1, injection volume is 0.5 μl/side. After drug administration, each mouse was subjected to behavioral testing immediately. In addition, the selection of the doses was based on the previous reports and our preliminary observations ([24]).
(§2) The behavior experiments were carried out 15 min after i.c.v. injection of MMI-0100, or 2 h after intranasal infusion of MMI-0100. The cytokines were measured 15 min after i.c.v. injection of MMI-0100.
(§3) The procedures for the novel object recognition (NOR) and object location recognition (OLR) tasks were described in our previous report ([23], [30]). The videos for NOR and OLR tasks were shown in Supplementary Material. […] The discrimination index (DI) in the memory retention phase was calculated as the percentage of the time a mouse explored the new object or location over the total time the mouse explored the two objects or locations. […]

[2] = test system: IL-6, IL-1β, TNF-α, iNOS; test: Quantitative PCR of pro-inflammatory factors in hippocampus; format: in vivo, mouse; details: Aβ1−42-induced model; 15 min after i.c.v. MMI-0100; Figure 5; n = 5
Experimental: Amnesia was caused by Aβ1−42 injection for 14 days or LPS infusion for 3 days; 15 min after injection of MMI-0100 or vehicle, the hippocampus was removed from mice. Real-time RT-PCR was performed according to a previous report ([31]). Total RNA was extracted using Trizol reagent (TaKaRa) and 1 μg of RNA in each sample was reversely transcribed into a single-stranded complementary DNA with the 5X PrimeScript RT Master Mix (TaKaRa) following the manufacturer's instructions. Amplification was carried out in a 25 μl reaction mixture consisting of 12.5 μl of 2X SYBR Premis Ex TaqTM II, 2 μl of cDNA, 1 μl of forward primer, 1 μl of reverse primer, and 8.5 μl of H2O, and was run under the following conditions: 95°C for 30 s, followed by 40 cycles of 95°C for 5 s, 58°C for 30 s, and 72°C for 30 s. The primer pair P1/P2 was used in the RT-PCR assay to identify the expression level of TNF-α, IL-6, IL-1β, and iNOS gene in vehicle + vehicle-, Aβ1−42 + vehicle-, Aβ1−42 + MMI-0100-, LPS + vehicle-, and LPS + MMI-0100-treated groups.

[3] = test system: TNF-α, IL-1β, IL-6; test: ELISA of pro-inflammatory cytokines in hippocampus; format: in vivo, mouse; details: Aβ1−42-induced model, Figure 6, n = 5
Experimental: Total proteins from the hippocampus of mice in each group were extracted with RIPA lysis buffer containing protease inhibitor (Gibco, Thermo Fisher Scientific, Inc.). Total proteins were determined using a bicinchoninic acid protein assay kit (Sangon Biotech Co., Ltd.). IL-1β, IL-6, and TNF-α in the hippocampus tissue were measured using ELISA kits (cat number: E-EL-M0049 for TNF-α, cat number: E-EL-M0044 for IL-6, cat number: E-EL-M0037 for IL-1β, Elabscience), according to the manufacturer's instructions.

[4] = biological target: T1, MK2 (Mus musculus, UniProt P49138); test: Western blotting of pMK2 in hippocampus; format: in vivo; details: Aβ1−42-induced model; Figure 7; n = 5
T1 construct: the protein samples (40 μg per lane) isolated from the hippocampus were separated by SDS-PAGE; from tissue; host or cells: mouse hippocampus
Experimental: Western blotting was carried out as per the manufacturer's instructions (Bio-Rad Laboratories, Inc). Protein was extracted with RIPA buffer containing protease inhibitor (Gibco; Thermo Fisher Scientific, Inc.). The protein concentration was determined using a BCA protein assay kit (Pierce; Thermo Fisher Scientific, Inc.). Briefly, the protein samples (40 μg per lane) isolated from the hippocampus were separated by SDS-PAGE and electrophoretically transferred onto polyvinylidene fluoride membranes. Membranes were blocked with 5% skimmed milk for 2 h and incubated overnight at 4°C with specific first antibodies. GAPDH was used as a loading control. Subsequently, the membranes were incubated with the corresponding secondary antibodies and the reaction was visualized with chemiluminescence reagents provided with an ECL kit (Thermo) and exposed to a film. The intensity of the blots was quantified with densitometry (Image J 1.49v; National Institutes of Health).

[5] = test system: Kunming mice; test: Object location recognition (OLR) task; format: in vivo, mouse; details: Aβ1−42 800 pmol i.c.v. 14 days before, tested after 24 h
Experimental: as §1, §2, §3

[6] = in vitro; details: mouse, brain homogenates
Experimental: The peptide levels after incubation were expressed as percent parent remaining. Points indicate the means and vertical lines indicate the SEM of 3 separate experiments.

[7] = intranasal experiment (Figure 10), MMI-0100 25 nmol intranasal or vehicle

T1 sequence (P49138 whole entry): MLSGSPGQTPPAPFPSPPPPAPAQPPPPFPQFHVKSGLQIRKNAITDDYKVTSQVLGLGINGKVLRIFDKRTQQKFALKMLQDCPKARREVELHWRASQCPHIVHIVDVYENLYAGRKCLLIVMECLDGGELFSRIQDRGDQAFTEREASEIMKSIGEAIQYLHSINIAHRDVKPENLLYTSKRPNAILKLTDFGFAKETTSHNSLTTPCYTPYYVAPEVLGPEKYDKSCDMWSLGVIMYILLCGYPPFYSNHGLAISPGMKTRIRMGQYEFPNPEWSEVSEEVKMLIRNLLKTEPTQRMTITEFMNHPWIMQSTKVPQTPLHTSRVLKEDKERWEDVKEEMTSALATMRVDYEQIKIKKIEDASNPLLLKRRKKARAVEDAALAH

Row | Substance | discrimination index (DI), NOR ([1]; Figure 2A, MMI-0100 5 nmol i.c.v. or vehicle, chance level 50%) [%] | discrimination index (DI), NOR [1, 7] [%] | mRNA level of IL-6, IL-1β, TNF-α and iNOS in hippocampus [2] | protein levels of IL-6, IL-1β and TNF-α in hippocampus [3] | phosphorylation of MK2 (pMK2/tMK2) in hippocampus [4] | discrimination index (DI), OLR ([5]; Figure 3A, MMI-0100 5 nmol i.c.v. or vehicle, chance level 50%) [%] | discrimination index (DI), OLR [5, 7] [%] | half-life [6] [h]
1 | Aβ1−42: Aβ1−42 peptide purchased from Hangzhou Chinese Peptide Biochemical Company, oligomer used to induce AD model | 50.96 | 50.98 | dramatically increased | higher | significantly up-regulated | 48.04 | 46.31 | –
2 | YARAAARQARAKALARQLGVAA [MMI-0100] | – | – | – | – | – | – | – | ~2.69
